{
  "source": "patent US20160022811A1",
  "about": "(Teva Pharmaceutical Industries Ltd., priority 2013, published 2016)",
  "origin": "cited, not measured here",
  "tested_on": "relapsing-remitting MS (RRMS)",
  "details": "registration trials, comparison with placebo",
  "data": [
    {"substance": "L-glutamic acid polymer with L-alanine, L-lysine, L-tyrosine, acetate (salt) [glatiramer acetate]", "values": [
      {"measurement": "reduction of relapse rate", "value": "about one third"}
    ]}
  ]
}
